Measured values from patent US8623862B2, “Derivatives of N-[(1H-pyrazol-1-yl)aryl]-1H-indole or 1H-indazole-3-carboxamide, preparation thereof and applications thereof in therapeutics” (Sanofi, priority 2011, dated 2014).

What was measured:
platelet aggregation [1] = experiment: Inhibition of platelet aggregation ex vivo (rat blood); format: in vivo; details: Platelet, 2 h; rat, gavage (oral), 10 mg/kg, two hours before taking the sample; read-out: Inhibition of platelet aggregation ex vivo (rat blood) in %, Gavage (oral) 10 mg/kg
Description: Inhibition of Platelet Aggregation Ex Vivo (Rat Blood)
Male rats of the Sprague-Dawley strain, weighing 250-300 g, are used at a rate of 6 animals per batch. Each test compound is diluted in a solution of glucose-containing water (glucose 5%) containing 5% of cremophore and 3% of glycofurol.
The compounds according to the invention are administered by stomach tube (10 ml/kg at 1 mg/ml) two hours before taking the sample or by infusion (1 ml/kg at 10 mg/ml) two hours before taking the sample.
The platelet-rich plasma (PRP) is obtained by centrifugation of the blood at 300 g for 5 minutes, and the measurements of platelet aggregation are performed as described above.
The results are calculated using the area under the curve of absorbance measured for 6 minutes, and expressed as percentage (%) of inhibition.

platelet aggregation [2] = experiment: Inhibition of platelet aggregation in vitro (rat blood); format: cell-based; details: 0.1 h; rat platelet-rich plasma, ADP-induced aggregation, area under the curve of absorbance for 6 minutes; read-out: Inhibition of platelet aggregation in vitro (rat blood);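 also: aggregation induced by ADP added as 4 µL of a 250 µM solution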
Method in brief: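 Platelet-rich plasma from male Sprague-Dawley rats (250-300 g), prepared by centrifugation at 300 g for 5 minutes. Aggregation measured at 37° C in an aggregometer. Percentage inhibition derived from area under the absorbance curve over 6 minutes.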

CCCC(=O)c1cnn(-c2ccc(NC(=O)c3cn(CC(=O)N4CC(C)N(C)C(C)C4)c4ccc(Cl)cc34)cc2)c1C.Cl (stereo not shown) [Compound 262, N-[4-(4-Butyryl-5-methyl-1H-pyrazol-1-yl)phenyl]-5-chloro-1-[2-oxo-2-(3,4,5-trimethylpiperazin-1-yl)ethyl]-1H-indole-3-carboxamide hydrochloride]
melting point: 217 °C
inhibition at 10 mg/kg (platelet aggregation [1]): 58.8%

CCCC(=O)c1cnn(-c2ccc(NC(=O)c3cn(CC(=O)N4CCN(CCOC(C)=O)CC4)c4ccc(Cl)cc34)cc2)c1C.Cl [Compound 275, 2-{4-[(3-{[4-(4-Butyryl-5-methyl-1H-pyrazol-1-yl)phenyl]carbamoyl}-5-chloro-1H-indol-1-yl)acetyl]piperazin-1-yl}ethyl acetate hydrochloride]
melting point: 160 °C
IC50 (platelet aggregation [2]): 200 nM

CCCC(=O)c1cnn(-c2ccc(NC(=O)c3cn(CC(=O)N4CCN(CC(C)=O)CC4)c4ccc(Cl)cc34)cc2)c1C.Cl [Compound 276, N-[4-(4-Butyryl-5-methyl-1H-pyrazol-1-yl)phenyl]-5-chloro-1-{2-oxo-2-[4-(2-oxopropyl)piperazin-1-yl]ethyl}-1H-indole-3-carboxamide hydrochloride]
melting point: 248 °C
inhibition at 10 mg/kg (platelet aggregation [1]): 49.9%
IC50 (platelet aggregation [2]): 220 nM
